# Assay results as given in patent US20230174484A1, “ANTAGONISTS OF GPR39 PROTEIN” (Oregon Health & Science University, priority 2020, published 2023).
# Molecular target: T1, human GPR39 receptor (Homo sapiens, UniProt O43194)
# T1 construct: PC3 Cells, Expressing the Endogenous Human GPR39 Receptor; endogenous in cells; host or cells: PC3 (human prostate adenocarcinoma) cells
# T1 sequence (O43194 1-453): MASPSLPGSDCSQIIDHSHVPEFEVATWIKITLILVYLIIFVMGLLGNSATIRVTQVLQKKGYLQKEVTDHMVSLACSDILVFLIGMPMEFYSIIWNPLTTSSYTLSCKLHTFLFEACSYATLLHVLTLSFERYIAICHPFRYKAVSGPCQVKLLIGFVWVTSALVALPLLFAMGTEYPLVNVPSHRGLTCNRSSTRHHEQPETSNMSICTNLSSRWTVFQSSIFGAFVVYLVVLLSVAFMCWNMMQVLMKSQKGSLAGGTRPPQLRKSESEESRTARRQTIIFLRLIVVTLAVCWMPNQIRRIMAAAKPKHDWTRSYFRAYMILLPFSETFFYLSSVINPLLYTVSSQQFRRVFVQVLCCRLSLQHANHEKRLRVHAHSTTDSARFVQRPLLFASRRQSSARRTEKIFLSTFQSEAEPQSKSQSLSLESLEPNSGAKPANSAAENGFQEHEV
# Assay: Measurement of intracellular calcium response in PC3 cells (FLIPR), antagonism of the C3 agonist response
# Format: cell-based
# Conditions: functional pKi (modified Cheng-Prusoff), inhibition of the C3 (TC-G 1008) response at EC90, 30 μM ZnCl2, read-out: fpKi activity
# Method: Human prostate adenocarcinoma (PC3) cells endogenously expressing human GPR39 receptor were seeded into black walls clear-base 384-well plates at a density of 7,500 cells per well in DM EM (Low Glucose) supplemented with 10% heat-inactivated foetal bovine serum and 1% of Pen/Strep and grown overnight at 37° C., 5% CO2. After washing with assay buffer (20 mM HEPES, 137 mM NaCI, 5.4 mM KCI, 10 mM glucose, 0.8 mM MgSO4, 1.3 mM CaCl2, 0.3 mM Na2HPO4, 0.4 mM KH2PO4 4.2 mM NaHCO3, pH 7.4), cells were incubated with Calcium-6 probe (Molecular Devices) at 37° C. for 2h and then equilibrated at RT for 30 minutes on metal block. The fluorescence was measured in real time by Fluorometric Imaging Plate Reader (FLIPR TETRA, Molecular Devices) (excitation wavelength at 470-495 nm, emission wavelength at 515-575 nm).
# Compounds of invention were serially diluted in neat DMSO at 1000 fold concentrations and plated into 384-well plates and then 200-fold diluted in assay buffer containing 150 uM ZnCl2 (30 μM final concentration) and […].
# Fluorescence was monitored throughout the run assay. The peak of Ca2+stimulation (baseline subtracted) was expressed as percentage of the maximal inhibition of the EC90 C3 response and was plotted versus the concentration of test compound. Curve fitting and IC50 estimations are carried out using a four-parameter logistic model using XLfit Software.
# The potency of compounds was reported as functional pKi (—Log10Ki) obtained using the modified Cheng-Prusoff relationship (Cheng, Y., Prusoff, W. H. 1973.)
# fKi =IC50/(1+[L]/EC50) where IC50 is the concentration of antagonist required for 50% inhibition of the maximum response, [L] is the concentration of the agonist used (EC90) and EC50 is the concentration of agonist need to induced 50% of the maximum response (obtained in each experimental plate).
# An fpKi less than 5.2 is reported as “+/±”. An fpKi ranging from 5.2 to 5.9 is reported as “+”. An fpKi from 6.0 to 6.5 is reported as “++”. An fpKi from 6.6 to 7.2 is reported as “+++”. An fpKi equal to or greater than 7.3 is reported as “++++”.
row,Compound,Ki [nM]
1,"O=C(Nc1ccc(C(=O)N2CCS(=O)(=O)CC2)c(N2CCCC2)c1)C1CC1 [Example 60, N-[4-(1,1-dioxo-1,4-thiazinane-4-carbonyl)-3-pyrrolidin-1-ylphenyl] Cyclopropanecarboxamide]",63.1 to 251
2,"CC1CN(c2cc(NC(=O)C3CC3)ccc2C(=O)N2CCS(=O)(=O)CC2)CC(C)O1 (racemic) [Example 188, N-[3-[(anti)-2,6-dimethylmorpholin-4-yl]-4-(1,1-dioxo-1,4-thiazinane-4-carbonyl)phenyl]cyclopropanecarboxamide]",1260 to 6310
3,"CN1CCN(C(=O)c2ccc(NC(=O)C3CC3)cc2N2CCCC2)C(c2cccc(Cl)c2)C1 (single isomer, unassigned) [Example 171b, (2R or 2S) N-[4-[2-(3-chlorophenyl)-4-methylpiperazine-1-carbonyl]-3-pyrrolidin-1-ylphenyl] cyclopropanecarboxamide]",≤ 50.1
4,"O=C(Nc1ccc(C(=O)N2CCS(=O)(=O)CC2)c(N2CCCC(C(F)(F)F)C2)c1)C1CC1 (racemic) [Example 185c, N-[4-(1,1-dioxo-1,4-thiazinane-4-carbonyl)-3-[3-(trifluoromethyl)piperidin-1-yl]phenyl]cyclopropanecarboxamide]",63.1 to 251
5,"O=C(Nc1ccc(C(=O)N2CCN(Cc3ccccc3)CC2)c(N2CCCCCC2)c1)C1CC1 [Example 50, N-(3-(azepan-1-yl)-4-(4-benzylpiperazine-1-carbonyl)phenyl)cyclopropanecarboxamide]",63.1 to 251
6,"CCCN1CCN(C(=O)c2ccc(NC(=O)C3CC3)cc2N2CCCOCC2)CC1 [Example 3, N-[3-(1,4-oxazepan-4-yl)-4-(4-propylpiperazine-1-carbonyl)phenyl]cyclopropanecarboxamide]",316 to 1000
7,"CCCN1CCN(C(=O)c2ccc(NC(=O)C3CC3)cc2N2CCCCCC2)CC1 [Example 36, N-(3-(azepan-1-yl)-4-(4-propylpiperazine-1-carbonyl)phenyl)cyclopropanecarboxamide]",63.1 to 251
8,"O=C(NCc1ccccc1)c1ccc(NC(=O)C2CC2)cc1N1CCCCCC1 [Example 43, 2-(azepan-1-yl)-N-benzyl-4-cyclopropaneamidobenzamide]",316 to 1000
9,"CC1CCN(c2cc(NC(=O)C3CC3)ccc2C(=O)N2CCN(C)CC2c2ccccc2)C1 (single isomer, unassigned) [Example 64d, (2S, 3R) or (2R, 3S) or (2R, 3R) or (2S, 3S) N-[4-(4-methyl-2-phenylpiperazine-1-carbonyl)-3-(3-methylpyrrolidin-1-yl)phenyl] cyclopropanecarboxamide]",316 to 1000
10,"CN1CCN(C(=O)c2ccc(NC(=O)C3CC3)cc2-n2cc(C(F)(F)F)cn2)C(c2ccccc2)C1 (stereo not shown) [Example 207, N-[4-(4-methyl-2-phenylpiperazine-1-carbonyl)-3-[4-(trifluoromethyl)pyrazol-1-yl]phenyl]cyclopropanecarboxamide]",316 to 1000
11,"CN1CCN(C(=O)c2ccc(NC(=O)C3CC3)cc2N2CCCCCC2)C(Cc2ccccc2)C1 (stereo not shown) [Example 76, N-[3-(azepan-1-yl)-4-(2-benzyl-4-methylpiperazine-1-carbonyl)phenyl]Cyclopropanecarboxamide]",63.1 to 251
12,"CN1CCN(C(=O)c2ccc(NC(=O)C3CC3)cc2N2CCC3(COC3)C2)C(c2ccccc2)C1 (stereo not shown) [Example 203, N-[4-(4-methyl-2-phenylpiperazine-1-carbonyl)-3-(2-oxa-7-azaspiro[3.4]octan-7-yl)phenyl]cyclopropanecarboxamide]",316 to 1000
13,"CCCN1CCN(C(=O)c2ccc(NC(=O)C3CC3)cc2N2CCCCC2)CC1 [Example 19, N-(3-(piperidin-1-yl)-4-(4-propylpiperazine-1-carbonyl)phenyl)cyclopropanecarboxamide]",316 to 1000
14,"CN1CCN(C(=O)c2ccc(NC(=O)C3CC3)cc2-n2ccc(C(F)(F)F)n2)C(c2ccccc2)C1 (stereo not shown) [Example 206, N-[4-(4-methyl-2-phenylpiperazine-1-carbonyl)-3-[3-(trifluoromethyl)pyrazol-1-yl]phenyl]cyclopropanecarboxamide]",63.1 to 251
15,"O=C(Nc1ccc(C(=O)N2CCC3(CC2)COC3)c(N2CCCC2)c1)C1CC1 [Example 219, N-[4-(2-oxa-7-azaspiro[3.5]nonane-7-carbonyl)-3-pyrrolidin-1-ylphenyl]cyclopropanecarboxamide]",63.1 to 251
16,"CCCN1CCN(C(=O)c2ccc(NC(=O)C3CC3)cc2-n2ccc(C)n2)CC1 [Example 8, N-(3-(3-methyl-1H-pyrazol-1-yl)-4-(4-propylpiperazine-1-carbonyl)phenyl)cyclopropanecarboxamide]",63.1 to 251
17,"Cn1c(Sc2ccccn2)nnc1-c1ccc(NC(=O)C2CC2)cc1N1CCCC1 [Example 116, N-[4-(4-methyl-5-pyridin-2-ylsulfanyl-1,2,4-triazol-3-yl)-3-pyrrolidin-1-ylphenyl]cyclopropanecarboxamide]",1260 to 6310
18,"O=C(Nc1ccc(C(=O)N2CCCCC2c2nnnn2Cc2ccccc2)c(N2CCCCCC2)c1)C1CC1 (stereo not shown) [Example 54, N-[3-(azepan-1-yl)-4-[2-(1-benzyltetrazol-5-yl)piperidine-1-carbonyl]phenyl]cyclopropanecarboxamide]",63.1 to 251
19,"COc1ccc(CN2CCN(C(=O)c3ccc(NC(=O)C4CC4)cc3N3CCCCCC3)CC2)cc1 [Example 30, N-(3-(azepan-1-yl)-4-(4-(4-methoxybenzyl)piperazine-1-carbonyl)phenyl) cyclopropanecarboxamide]",316 to 1000
20,CCCN1CCN(C(=O)c2ccc(NC(=O)C3CC3(F)F)cc2N2CCCCCC2)CC1 (stereo not shown) [Example 92],316 to 1000
21,"CN1CCN(C(=O)c2ccc(NC(=O)C3CC3)cc2N2CCCCCC2)C(c2ccsc2)C1 (racemic) [Example 70c, N-(3-(azepan-1-yl)-4-(4-methyl-2-(thiophen-3-yl)piperazine-1-carbonyl)phenyl)cyclopropane carboxamide]",63.1 to 251
22,"O=C(Nc1ccc(C(=O)N2CCC(C(F)(F)F)CC2)c(N2CCCC2)c1)C1CC1 [Example 61, N-[3-pyrrolidin-1-yl-4-[4-(trifluoromethyl)piperidine-1-carbonyl]phenyl]cyclopropanecarboxamide]",63.1 to 251
23,"O=C(Nc1ccc(C(=O)N2CCN(Cc3ccc(F)cc3)CC2)c(N2CCCCCC2)c1)C1CC1 [Example 29, N-(3-(azepan-1-yl)-4-(4-(4-fluorobenzyl)piperazine-1-carbonyl)phenyl) Cyclopropanecarboxamide]",63.1 to 251
24,"O=C(Nc1ccc(C(=O)N2CC[S+]([O-])CC2c2ccccc2)c(N2CCCC2)c1)C1CC1 (racemic) [Example 169, N-[4-(1-oxo-3-phenyl-1,4-thiazinane-4-carbonyl)-3-pyrrolidin-1-ylphenyl]cyclopropanecarboxamide]",1260 to 6310
25,"CCCN1CCN(C(=O)c2ccc(NC(=O)C3CC3)cc2-n2ccc(C)c2)CC1 [Example 9, N-[3-(3-methylpyrrol-1-yl)-4-(4-propylpiperazine-1-carbonyl)phenyl] Cyclopropanecarboxamide]",1260 to 6310
26,"CN1CCN(C(=O)c2ccc(NC(=O)C3CC3)cc2N2CCCCCC2)C(c2cccs2)C1 (racemic) [Example 69c, N-(3-(azepan-1-yl)-4-(4-methyl-2-(thiophen-2-yl)piperazine-1-carbonyl)phenyl) cyclopropane carboxamide]",≤ 50.1
27,"O=C(Nc1ccc(C(=O)N2CCS(=O)(=O)CC2)c(N2CC3CC(C3)C2)c1)C1CC1 [Example 195, N-[3-(3-azabicyclo[3.1.1]heptan-3-yl)-4-(1,1-dioxo-1,4-thiazinane-4-carbonyl)phenyl]cyclopropanecarboxamide]",63.1 to 251
28,"Cc1ccn(-c2cc(NC(=O)C3CC3)ccc2C(=O)N2CCN(C)CC2c2ccccc2)n1 (racemic) [Example 155c, N-[4-(4-methyl-2-phenylpiperazine-1-carbonyl)-3-(3-methylpyrazol-1-yl)phenyl]cyclopropanecarboxamide]",316 to 1000
